One series deals with SISO. Nature of the series: Proliferation of tumor cell lines (Bracht et al.). Type of series: cell-based. The conditions noted are these: for activity at 20 µM: tested at 20 μM.
A further series deals with 5637. Description: Proliferation of tumor cell lines (Bracht et al.). The format is cell-based. The note with it: for activity at 20 µM: 5637, tested at 20 μM.
In another series the test system is KYSE-70. Description: Proliferation of tumor cell lines (Bracht et al.). The format is cell-based. The note with it: Homo sapiens; for activity at 20 µM: KYSE-70, tested at 20 μM.
A further series concerns LCLC. Nature of the series: Proliferation of tumor cell lines (Bracht et al.). The format is cell-based. The conditions noted are these: read-out: IC50 (μM) Mean, inhibition of cell proliferation.
In the next series the test system is DAN-G. Description: Proliferation of tumor cell lines (Bracht et al.). The format is cell-based. The note with it: read-out: IC50 (μM) Mean, inhibition of cell proliferation.
A further series relates to MCF-7. Description: Proliferation of tumor cell lines (Bracht et al.). The format is cell-based. The note with it: Homo sapiens, MCF7, read-out: IC50 (μM) Mean, inhibition of cell proliferation.
For a further series, the system named is RT-4. Description: Proliferation of tumor cell lines (Bracht et al.). Type of series: cell-based. The note with it: Homo sapiens, read-out: IC50 (μM) Mean, inhibition of cell proliferation.
The next series has as its system A427. Nature of the series: Proliferation of tumor cell lines (Bracht et al.). The conditions noted are these: Homo sapiens, A-427, read-out: IC50 (μM) Mean, inhibition of cell proliferation. The format is cell-based.
In series [1] the target is T1, human CK2 protein kinase (holoenzyme) (Homo sapiens, UniProt P68400).
T1 construct: made in house; host or cells: E. coli BL21(DE3), pT7-7 or bicistronic pET11d-CK2α, β
Nature of the series: Inhibition of recombinant human CK2 protein kinase (holoenzyme), radiometric filter assay with peptide […]. Type of series: biochemical. The conditions noted are these: for inhibition at 10 µM: 10 μM compound, DMSO control = 100% CK2 activity, at least three independent experiments; for IC50: concentration range 30 μM to 0.01 μM, 100 μM ATP in assay buffer.

A further series has as its system CK2. The conditions noted are these: known CK2 inhibitors, investigated predominantly on the rat enzyme; cited from earlier work.

Each structure is given as a SMILES string. Bounds are passed on as bounds.

As a reminder, the melting point is the temperature of the solid-liquid transition. By inhibition is commonly meant the share of the control response that was lost under treatment.

T1 sequence (P68400 whole entry): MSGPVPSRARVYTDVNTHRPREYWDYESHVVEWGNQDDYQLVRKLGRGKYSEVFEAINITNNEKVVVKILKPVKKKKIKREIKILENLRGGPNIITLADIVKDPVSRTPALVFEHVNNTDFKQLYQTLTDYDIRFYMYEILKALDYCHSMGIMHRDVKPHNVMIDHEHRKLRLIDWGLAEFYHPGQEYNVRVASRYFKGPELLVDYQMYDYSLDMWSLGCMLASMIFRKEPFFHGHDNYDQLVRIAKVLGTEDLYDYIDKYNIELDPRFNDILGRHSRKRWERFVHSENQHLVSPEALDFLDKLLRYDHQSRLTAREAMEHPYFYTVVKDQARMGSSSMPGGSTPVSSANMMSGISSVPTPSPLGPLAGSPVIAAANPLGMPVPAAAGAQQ
T1 sequence (P67870 whole entry partner): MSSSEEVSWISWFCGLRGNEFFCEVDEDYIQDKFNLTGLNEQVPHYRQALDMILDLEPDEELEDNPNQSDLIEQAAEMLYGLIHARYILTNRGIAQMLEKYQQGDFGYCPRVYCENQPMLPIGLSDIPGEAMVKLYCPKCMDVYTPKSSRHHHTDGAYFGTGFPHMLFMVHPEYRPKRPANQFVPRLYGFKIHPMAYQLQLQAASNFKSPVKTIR

With `O=C1CC(c2ccccc2)Cc2c1c1c(n2Cc2ccccc2)-c2ccccc2C1=O` (stereo not shown) [Compound 4n, 5-Benzyl-7-phenyl-5,6,7,8-tetrahydro-indeno[1,2-b]indole-9,10-dione], the activity at 20 µM with SISO (read-out: T/C (%) Mean) was 80.9%; in the series on 5637 (read-out: T/C (%) Mean), 39.4%; with KYSE-70 (read-out: T/C (%) Mean), 75.2%.

With `CC(C)n1c2c(c3c(O)cccc31)C(=O)c1ccccc1-2` [Compound 5b, 9-Hydroxy-5-isopropyl-5H-indeno[1,2-b]indol-10-one], the activity at 20 µM in the series with SISO (read-out: T/C (%) Mean) is 104%; with 5637 (read-out: T/C (%) Mean), 77.5%; in the series with KYSE-70 (read-out: T/C (%) Mean), 77.6%.

As for `COC(=O)C1C(=O)c2c3c(n(-c4ccccc4)c2CC1C)-c1ccccc1C3=O` (stereo not shown) [Example 20, Methyl 7-methyl-9,10-dioxo-5-phenyl-5,6,7,8,9,10-hexahydroindeno[1,2-b]indole-8-carboxylate], the melting point fell in the range of 249 to 250 °C.

The compound `COC(=O)C1C(=O)c2c([nH]c3c2C(=O)c2ccccc2-3)CC1C` (stereo not shown) [Compound 4l, Methyl 7-methyl-9,10-dioxo-5,6,7,8,9,10-hexahydroindeno[1,2-b]indole-8-carboxylate] displayed a melting point of 287 °C. Besides, in the series on SISO (read-out: T/C (%) Mean), the activity at 20 µM worked out at 104%. Moreover, the activity at 20 µM in the series on 5637 (read-out: T/C (%) Mean) stood at 79.1%. The activity at 20 µM with KYSE-70 (read-out: T/C (%) Mean) turned out to be 98.8%.

`O=C1CCCc2c1c1c(n2Cc2ccccc2)-c2ccccc2C1=O` [Compound 4c, 5-Benzyl-5,6,7,8-tetrahydroindeno[1,2-b]indole-9,10-dione] showed a melting point of 185 °C. Further, the activity at 20 µM in the series on SISO (read-out: T/C (%) Mean) came to 86.4%. Further, the activity at 20 µM with 5637 (read-out: T/C (%) Mean) is 53.6%. The activity at 20 µM in the series on KYSE-70 (read-out: T/C (%) Mean) was 65.8%.

With `COc1ccc(CCn2c3c(c4c2-c2ccccc2C4=O)C(=O)CCC3)cc1OC` [Compound 4j, 5-[2-(3,4-Dimethoxyphenyl)ethyl]-5,6,7,8-tetrahydroindeno[1,2-b]indole-9,10-dione], the activity at 20 µM in the series with SISO (read-out: T/C (%) Mean) amounted to 105%; with 5637 (read-out: T/C (%) Mean), 101%; with KYSE-70 (read-out: T/C (%) Mean), 91.5%.

With `O=C(O)Cn1c2c(c3c1-c1ccccc1C3=O)C(=O)CCC2` [Example 13, (9,10-Dioxo-6,8,9,10-tetrahydro-7H-indeno[1,2-b]indol-5-yl)acetic acid], the melting point is 279 to 280 °C (dec.).

As for `O=C1CCCc2c1c1c(n2CCc2ccccc2)-c2ccccc2C1=O` [Compound 4d, 5-Phenethyl-5,6,7,8-tetrahydro-indeno[1,2-b]indole-9,10-dione], the IC50 with LCLC was 5.66 µM; in the series on DAN-G, more than 20 µM; in the series with SISO (read-out: IC50 (μM) Mean, inhibition of cell proliferation), 12.3 µM; in the series on 5637 (5637, read-out: IC50 (μM) Mean, inhibition of cell proliferation), 10.7 µM; with MCF-7, 6.53 µM; in the series with RT-4 it was more than 20 µM. Also, the IC50 is more than 20 µM in the series with A427; 0.82 µM in series [1]; more than 20 µM in the series on KYSE-70 (KYSE-70, read-out: IC50 (μM) Mean, inhibition of cell proliferation). Further, the activity at 20 µM with SISO (read-out: T/C (%) Mean) is 65.5%; in the series with 5637 (read-out: T/C (%) Mean), 48%; in the series with KYSE-70 (read-out: T/C (%) Mean), 67.5%. Also, the inhibition at 10 µM in series [1] turned out to be 67%.

As for `CC(c1ccccc1)n1c2c(c3c1-c1ccccc1C3=O)C(=O)CCC2` (racemic) [Compound 4f, DL-5-(1-phenylethyl)-5,6,7,8-tetrahydro-indeno[1,2-b]indole-9,10-dione], the melting point worked out at 201 °C. Besides, in the series on SISO (read-out: T/C (%) Mean), the activity at 20 µM was 95.8%. Moreover, the activity at 20 µM in the series with 5637 (read-out: T/C (%) Mean) worked out at 64.9%. The inhibition at 10 µM in series [1] is 66%. Besides, the activity at 20 µM in the series on KYSE-70 (read-out: T/C (%) Mean) worked out at 62.3%.

`CN(C)CCn1c2c(c3c1-c1ccccc1C3=O)C(=O)CCC2` [Example 11, 5-(2-Dimethylaminoethyl)-5,6,7,8-tetra-hydroindeno[1,2-b]indole-9,10-dione] returned a melting point of 178 °C.

As to `O=C1CCCc2[nH]c3c(c21)C(=O)c1ccccc1-3` [Compound 4a, 5,6,7,8-Tetrahydroindeno[1,2-b]indole-9,10-dione], the melting point lay in the range of 332 to 333 °C. The activity at 20 µM in the series with SISO (read-out: T/C (%) Mean) worked out at 99.9%. The activity at 20 µM in the series on 5637 (read-out: T/C (%) Mean) was 80.9%. In addition, the activity at 20 µM with KYSE-70 (read-out: T/C (%) Mean) is 77.5%.

Consider `Cc1cc(O)c2c(c1)C(=O)c1cc(O)cc(O)c1C2=O` [emodin], for which, in the series with CK2, the IC50 is 2 µM.

As to `CCOCCCn1c2c(c3c1-c1ccccc1C3=O)C(=O)CCC2` [Example 16, 5-Ethoxypropyl-5,6,7,8-tetrahydro-indeno[1,2-b]indole-9,10-dione], the melting point was 129 °C.

As to `COc1ccc(Cn2c3c(c4c2-c2ccccc2C4=O)C(=O)CCC3)cc1` [Compound 4i, 5-(4-Methoxybenzyl)-5,6,7,8-tetrahydro-indeno[1,2-b]indole-9,10-dione], the melting point is 198 to 199 °C. Besides, the activity at 20 µM with SISO (read-out: T/C (%) Mean) amounted to 93.6%. In the series on 5637 (read-out: T/C (%) Mean), the activity at 20 µM came to 78.2%. In the series on KYSE-70 (read-out: T/C (%) Mean), the activity at 20 µM came out at 79.2%.

For the compound `CC1CC(=O)c2c3c(n(CCc4ccccc4)c2C1)-c1ccccc1C3=O` (stereo not shown) [Compound 4p, 7-Methyl-5-phenethyl-5,6,7,8-tetrahydro-indeno[1,2-b]indole-9,10-dione], the activity at 20 µM in the series on SISO (read-out: T/C (%) Mean) was 96.3%; in the series on 5637 (read-out: T/C (%) Mean) it was 49.8%; in the series on KYSE-70 (read-out: T/C (%) Mean), 72.1%.

Consider `O=C1CCCc2c1c1c(n2CCCO)-c2ccccc2C1=O` [Example 12, 5-(3-Hydroxypropyl)-5,6,7,8-tetrahydro-indeno[1,2-b]indole-9,10-dione], for which the melting point worked out at 241 °C.

For the compound `COc1ccc(CCn2c3c(c4c2-c2ccccc2C4=O)C(=O)CCC3)cc1OC` (hydrate or solvate) [Compound 4j, 5-[2-(3,4-Dimethoxyphenyl)ethyl]-5,6,7,8-tetrahydroindeno[1,2-b]indole-9,10-dione], the melting point lay in the range of 189 to 190 °C.

`O=C1CCCc2c1c1c(n2CCO)-c2ccccc2C1=O` [Example 14, 5-(2-Hydroxyethyl)-5,6,7,8-tetrahydro-indeno[1,2-b]indole-9,10-dione] returned a melting point of 262 to 263 °C.

Consider `O=C1CCCc2c1c1c(n2-c2ccccc2)-c2ccccc2C1=O` [Compound 4g, 5-Phenyl-5,6,7,8-tetrahydroindeno[1,2-b]indole-9,10-dione], for which the activity at 10 µM in the series on SISO (tested at 10 μM (**), read-out: T/C (%) Mean) amounted to 101%; with 5637 (5637, tested at 10 μM (**), read-out: T/C (%) Mean) it was 86.3%; in the series on KYSE-70 (KYSE-70, tested at 10 μM (**), read-out: T/C (%) Mean), 81.8%. Besides, the inhibition at 10 µM in series [1] worked out at 60%. Moreover, the IC50 in series [1] worked out at 1.44 µM.

Turning to `O=c1ccc(=O)c2c1c1c(=O)c3ccccc3c1n2CCc1ccccc1` [Compound 6d, 5-Phenethyl-5H-indeno[1,2-b]indole-6,9,10-trione], the activity at 5 µM is 87.2% in the series with SISO (tested at 5 μM (*), read-out: T/C (%) Mean); 69.7% with 5637 (5637, tested at 5 μM (*), read-out: T/C (%) Mean); 92% in the series with KYSE-70 (KYSE-70, tested at 5 μM (*), read-out: T/C (%) Mean). Besides, the inhibition at 10 µM in series [1] amounted to 70%. In series [1], the IC50 worked out at 5.74 µM.

(Values after patent US8133913B2, “Substituted indeno [1,2-b]indole derivatives as novel inhibitors of protein kinase CK2 and their use as tumor therapeutic agents, cytostatics and diagnostic aids” (Heinrich-Heine Universitat Dusseldof, priority 2006, dated 2012).)
